In patent US20220119354A1, “DIAMINO-SUBSTITUTED PYRIDINES AND PYRIMIDINES AS HERBICIDES” (FMC Corporation, priority 2019, published 2022):

Tests used:
Assay type in all cases: in vivo
[1] = test system: ragweed (common ragweed, Ambrosia elatior); assay: Test A postemergence, ragweed; conditions: 0 to 100 scale; for Plant response rating, Ragweed: 0 no effect, 100 complete control
Outline: (§1)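 Seeds sown in loam–sand blend received a directed soil spray of test chemical in non-phytotoxic solvent with surfactant (preemergence); postemergence plants at 2–10 cm, one- to two-leaf stage, were sprayed with the same formulation. Injury rated visually versus untreated controls after ~10 d in greenhouse, 0–100 scale.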

[2] = test system: foxtail, giant (Setaria faberii); assay: Test A preemergence, giant foxtail; conditions: 0 to 100 scale, 0 is no effect, 100 is complete control
Outline: as §1

[3] = test system: rice (Oryza sativa); assay: Test B flooded paddy test, rice; conditions: Flood, 250 g ai/ha, applied to paddy water, 2-leaf stage, visual evaluation after 13 to 15 d
Outline: (§2)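 Plants grown to 2-leaf stage. Compounds applied directly into paddy water flooded 3 cm above soil, with that depth kept throughout. After 13–15 d in greenhouse, visual rating versus controls on a 0–100 scale (0 no effect, 100 complete control).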

[4] = test system: blackgrass (Alopecurus myosuroides); assay: Test A postemergence, blackgrass; conditions: 0 to 100 scale; for Plant response rating, Blackgrass: 0 no effect, 100 complete control
Outline: as §1

[5] = test system: galium (catchweed bedstraw, Galium aparine); assay: Test A postemergence, galium; conditions: 0 to 100 scale; for Plant response rating, Galium: 0 no effect, 100 complete control
Outline: as §1

[6] = test system: sedge, umbrella (small-flower umbrella sedge, Cyperus difformis); assay: Test B flooded paddy test, umbrella sedge; conditions: Flood, 250 g ai/ha, applied to paddy water, 2-leaf stage, visual evaluation after 13 to 15 d
Outline: as §2

[7] = test system: corn (Zea mays); assay: Test A postemergence, corn; conditions: 0 to 100 scale; for Plant response rating, Corn: 0 no effect, 100 complete control
Outline: as §1

[8] = test system: pigweed (Amaranthus retroflexus); assay: Test A postemergence, pigweed; conditions: 0 to 100 scale; for Plant response rating, Pigweed: 0 no effect, 100 complete control
Outline: as §1

[9] = test system: wheat (Triticum aestivum); assay: Test A postemergence, wheat; conditions: 0 to 100 scale; for Plant response rating, Wheat: 0 no effect, 100 complete control
Outline: as §1

[10] = test system: kochia (Kochia scoparia); assay: Test A postemergence, kochia; conditions: 0 to 100 scale; for Plant response rating, Kochia: 0 no effect, 100 complete control
Outline: as §1

[11] = test system: pigweed (Amaranthus retroflexus); assay: Test A preemergence, pigweed; conditions: 0 to 100 scale, 0 is no effect, 100 is complete control
Outline: as §1

[12] = test system: foxtail, giant (Setaria faberii); assay: Test A postemergence, giant foxtail; conditions: 0 to 100 scale; for Plant response rating, Foxtail, Giant: 0 no effect, 100 complete control
Outline: as §1

[13] = test system: ducksalad (Heteranthera limosa); assay: Test B flooded paddy test, ducksalad; conditions: Flood, 250 g ai/ha, applied to paddy water, 2-leaf stage, visual evaluation after 13 to 15 d
Outline: as §2

[14] = test system: barnyardgrass (Echinochloa crus-galli); assay: Test B flooded paddy test, barnyardgrass; conditions: Flood, 250 g ai/ha, applied to paddy water, 2-leaf stage, visual evaluation after 13 to 15 d
Outline: as §2

[15] = test system: barnyardgrass (Echinochloa crus-galli); assay: Test A postemergence, barnyardgrass; conditions: 0 to 100 scale; for Plant response rating, Barnyardgrass: 0 no effect, 100 complete control
Outline: as §1

[16] = test system: ryegrass, Italian (Lolium multiflorum); assay: Test A postemergence, Italian ryegrass; conditions: 0 to 100 scale; for Plant response rating, Ryegrass, Italian: 0 no effect, 100 complete control
Outline: as §1

[17] = test system: kochia (Kochia scoparia); assay: Test A preemergence, kochia; conditions: 0 to 100 scale, 0 is no effect, 100 is complete control
Outline: as §1

[18] = test system: barnyardgrass (Echinochloa crus-galli); assay: Test A preemergence, barnyardgrass; conditions: 0 to 100 scale, 0 is no effect, 100 is complete control
Outline: as §1

[19] = test system: ragweed (common ragweed, Ambrosia elatior); assay: Test A preemergence, ragweed; conditions: 0 to 100 scale, 0 is no effect, 100 is complete control
Outline: as §1

[20] = test system: ryegrass, Italian (Lolium multiflorum); assay: Test A preemergence, Italian ryegrass; conditions: 0 to 100 scale, 0 is no effect, 100 is complete control
Outline: as §1

[21] = 500 g ai/ha, 0 is no effect, 100 is complete control

| SMILES | Plant response rating, Ragweed ([1]; 125 g ai/ha) | Foxtail, Giant plant response rating ([2]; 125 g ai/ha) | Foxtail, Giant plant response rating ([2]; 500 g ai/ha) | Plant response rating, Rice (0 to 100 scale, 0 is no effect, 100 is complete control) [3] | Plant response rating, Blackgrass ([4]; 125 g ai/ha) | Plant response rating, Galium ([5]; 125 g ai/ha) | Plant response rating, Sedge, Umbrella (0 to 100 scale, 0 is no effect, 100 is complete control) [6] | Plant response rating, Corn ([7]; 125 g ai/ha) | Plant response rating, Pigweed ([8]; 125 g ai/ha) | Plant response rating, Wheat ([9]; 125 g ai/ha) | Plant response rating, Kochia ([10]; 125 g ai/ha) | Pigweed plant response rating ([11]; 125 g ai/ha) | Pigweed plant response rating ([11]; 500 g ai/ha) | Plant response rating, Foxtail, Giant ([12]; 125 g ai/ha) | Plant response rating, Ducksalad (0 to 100 scale, 0 is no effect, 100 is complete control) [13] | Plant response rating, Barnyardgrass (0 to 100 scale, 0 is no effect, 100 is complete control) [14] | Plant response rating, Barnyardgrass ([15]; 125 g ai/ha) | Plant response rating, Ryegrass, Italian ([16]; 125 g ai/ha) | Kochia plant response rating ([17]; 125 g ai/ha) | Kochia plant response rating ([17]; 500 g ai/ha) | further results |
| --- | --- | --- | --- | --- | --- | --- | --- | --- | --- | --- | --- | --- | --- | --- | --- | --- | --- | --- | --- | --- | --- |
| C[C@@H](Nc1ncc(C(F)(F)F)c(N)n1)c1csc2ccccc12 [Compound 41] | 60 | 30 | 90 | 0 | 0 | 50 | 65 | 10 | 90 | 0 | 70 | 80 | 100 | 50 | 35 | 15 | 0 | 20 | 70 | 90 | Ragweed plant response rating [1, 21]: 90; Blackgrass plant response rating [4, 21]: 0; Galium plant response rating [5, 21]: 70; Corn plant response rating [7, 21]: 20; Pigweed plant response rating [8, 21]: 100; Wheat plant response rating [9, 21]: 0; Kochia plant response rating [10, 21]: 90; Foxtail, Giant plant response rating [12, 21]: 100; Barnyardgrass plant response rating [15, 21]: 50; Ryegrass, Italian plant response rating [16, 21]: 70; Barnyardgrass plant response rating ([18]; 125 g ai/ha): 40; Barnyardgrass plant response rating ([18]; 500 g ai/ha): 90; Ragweed plant response rating ([19]; 125 g ai/ha): 90; Ragweed plant response rating ([19]; 500 g ai/ha): 100; Ryegrass, Italian plant response rating ([20]; 125 g ai/ha): 20; Ryegrass, Italian plant response rating ([20]; 500 g ai/ha): 80 |
| Cc1nc(NC(C)c2coc3ccccc23)nc(N)c1C(F)(F)F (stereo not drawn) [Compound 106] | 20 | 0 | 50 | 0 | 0 | 70 | 0 | 0 | 70 | 0 | 80 | 30 | 100 | 0 | 0 | 0 | 0 | 0 | 80 | 90 | Plant response rating, Ragweed ([1]; 500 g ai/ha): 100; Plant response rating, Blackgrass ([4]; 500 g ai/ha): 0; Plant response rating, Galium ([5]; 500 g ai/ha): 80; Plant response rating, Corn ([7]; 500 g ai/ha): 0; Plant response rating, Pigweed ([8]; 500 g ai/ha): 100; Plant response rating, Wheat ([9]; 500 g ai/ha): 0; Plant response rating, Kochia ([10]; 500 g ai/ha): 90; Plant response rating, Foxtail, Giant ([12]; 500 g ai/ha): 0; Plant response rating, Barnyardgrass ([15]; 500 g ai/ha): 30; Plant response rating, Ryegrass, Italian ([16]; 500 g ai/ha): 0; Barnyardgrass plant response rating ([18]; 125 g ai/ha): 0; Barnyardgrass plant response rating ([18]; 500 g ai/ha): 0; Ragweed plant response rating ([19]; 125 g ai/ha): 60; Ragweed plant response rating ([19]; 500 g ai/ha): 100; Ryegrass, Italian plant response rating ([20]; 125 g ai/ha): 0; Ryegrass, Italian plant response rating ([20]; 500 g ai/ha): 30 |
